{
  "source": "patent US20100227840A1",
  "about": "“USE OF 25-HYDROXY VITAMIN D3 TO IMPROVE MALE ANIMAL FERTILITY” (priority 2005, published 2010)",
  "key": {"pigs": {"system": "pigs", "assay": "conception rate of pigs fertilized by boars administered 25-hydroxy vitamin D3", "format": "in vivo, pig", "details": "pigs fertilized by boars that were administered 25-hydroxy vitamin D3"}, "boars": {"system": "boars", "assay": "administration of 25-hydroxy vitamin D3 to boars: quality of semen", "format": "in vivo, pig", "details": "administered to boars"}},
  "data": [
    {"compound": "C=C1CC[C@H](O)C/C1=C/C=C1\\CCC[C@]2(C)[C@@H]([C@H](C)CCCC(C)(C)O)CC[C@@H]12", "note": "[25-hydroxy vitamin D3]", "values": [
      {"measurement": "conception rate in pigs", "setting": "pigs", "value": "increases the conception rate in pigs"},
      {"measurement": "quality of boar semen", "setting": "boars", "value": "improves the quality of boar semen"}
    ]}
  ]
}
